Experimental findings from ChEMBL document CHEMBL4028859, “Inhibition of Calcium Dependent Protein Kinase 1 (CDPK1) by Pyrazolopyrimidine Analogs Decreases Establishment and Reoccurrence of Central Nervous System Disease by Toxoplasma gondii” (J Med Chem, 2017) are described below.

For series [1], the system named is Mus musculus. Kind of series: (§1) AUClast in Swiss albino mouse at 3 mg/kg, iv administered as single dose by LC-MS/MS analysis. Format: ADME, organism-based. Also noted: dose 3 mg/kg, time 0 - last, route intravenous. Conditions: in vivo.
Series [2] has as its system Mus musculus. The experiment in a line: (§2) Volume of distribution at steady state in Swiss albino mouse at 3 mg/kg, iv administered as single dose by LC-MS/MS analysis. In kind it is ADME, organism-based. The following applies: in vivo.
Series [3] deals with Mus musculus. The experiment in a line: (§3) Tmax in Swiss albino mouse at 10 mg/kg, po administered as single dose by LC-MS/MS analysis. In kind it is ADME, organism-based. The following applies: in vivo.
Series [4] can be described thus: Apparent permeability from basolateral to apical side in human Caco2 cells at 5 uM by LC-MS/MS analysis. The following applies: caco-2, 5 µM. Format: ADME, cell-based. (Caco-2 monolayers are a common model of the intestinal barrier.)
For series [5], the system named is Mus musculus. The experiment in a line: (§4) AUC (infinity) in Swiss albino mouse at 10 mg/kg, po administered as single dose by LC-MS/MS analysis. In kind it is ADME, organism-based. Details: dose 10 mg/kg, time infinity, route oral. The following applies: in vivo.
For series [6], the system named is Mus musculus. The experiment in a line: (§5) AUC (infinity) in Swiss albino mouse at 3 mg/kg, iv administered as single dose by LC-MS/MS analysis. Details: dose 3 mg/kg, time infinity, route intravenous. Format: ADME, organism-based. The following applies: in vivo.
The nature of series [7]: Initial concentration in Swiss albino mouse at 3 mg/kg, iv administered as single dose by LC-MS/MS analysis. In kind it is ADME, organism-based. The following applies: in vivo.
Series [8] relates to Mus musculus. Kind of series: (§6) AUClast in Swiss albino mouse at 10 mg/kg, po administered as single dose by LC-MS/MS analysis. Conditions: in vivo. Also noted: dose 10 mg/kg, route oral, time 0 - last. Format: ADME, organism-based.
A short description of series [9]: Apparent permeability from apical to basolateral side in human Caco2 cells at 5 uM by LC-MS/MS analysis. Conditions: caco-2, 5 µM. In kind it is ADME, cell-based.
Series [10] relates to Mus musculus. Kind of series: (§7) Cmax in Swiss albino mouse at 10 mg/kg, po administered as single dose by LC-MS/MS analysis. The following applies: in vivo. In kind it is ADME, organism-based. Also noted: dose 10 mg/kg, route oral.
The nature of series [11]: Dissociation constant, pKa of compound. In kind it is physicochemical.
Series [12] is described as follows: as §1. In kind it is ADME, organism-based. Also noted: dose 3 mg/kg, time 0 - last, route intravenous. The following applies: Swiss albino, in vivo.
The nature of series [13]: as §2. Format: ADME, organism-based. The following applies: Swiss albino, in vivo, read-out: Vdss.
Series [14] in a line: as §3. In kind it is ADME, organism-based. The following applies: Swiss albino, in vivo.
Series [15] has as its system Mus musculus. The experiment in a line: Oral bioavailability in Swiss albino mouse at 10 mg/kg administered as single dose by LC-MS/MS analysis. Format: ADME, organism-based. Conditions: in vivo.
Series [16] is described as follows: as §4. Also noted: dose 10 mg/kg, time infinity, route oral. The following applies: Swiss albino, in vivo. Format: ADME, organism-based.
Series [17] is described as follows: as §5. Conditions: Swiss albino, in vivo. In kind it is ADME, organism-based. Also noted: dose 3 mg/kg, time infinity, route intravenous.
Series [18] is described as follows: as §6. In kind it is ADME, organism-based. Also noted: dose 10 mg/kg, route oral, time 0 - last. The following applies: Swiss albino, in vivo.
The nature of series [19]: as §7. The following applies: Swiss albino, in vivo. In kind it is ADME, organism-based. Also noted: dose 10 mg/kg, route oral.
Series [20] is described as follows: Ratio of total drug level in brain to plasma in Swiss albino mouse at 10 to 50 mg/kg, po administered as single dose upto 24 hrs by LC-MS/MS analysis. In kind it is ADME, organism-based. The following applies: read-out: BPR.
Series [21] can be described thus: Ratio of total drug level in CNS to serum in Swiss albino mouse at 10 to 50 mg/kg, po administered as single dose upto 24 hrs by LC-MS/MS analysis. In kind it is ADME, organism-based.

What is called Vdss is the apparent volume that relates the amount in the body to the concentration in plasma or blood. Low values mean little distribution into tissue, high ones wide distribution into tissue. In general, Tmax refers to the time from dosing to the highest level. What is called Papp is a coefficient for how fast a substance crosses the barrier. What is called AUC is concentration integrated over time. High values mean more exposure, low ones less exposure. By Cmax is commonly meant the peak of the concentration-time curve. As a reminder, the pKa is the pH at which an ionisable group is half protonated. Read a low pKa as a group that gives up its proton readily. For orientation: AUC(0-t) means exposure summed from dosing to a finite time, without extrapolation to infinity. Low readings indicate less exposure, high ones more exposure. As usually defined, the AUC(0-inf) is total exposure, with the tail of the curve extrapolated.

Take `Cc1cccc(Oc2nn(C(C)(C)C)c3ncnc(N)c23)c1`: the AUClast in the series with Mus musculus [1] amounted to 619.33 ng·h/mL; with Mus musculus [8], 85.47 ng·h/mL. Moreover, the distribution volume (Vdss) in the series on Mus musculus [2] was 2.32 L/kg. Besides, in the series on Mus musculus [3], the Tmax was 15 min. The Papp came to 14.6 ×10⁻⁶ cm/s in [4] and 15 ×10⁻⁶ cm/s in series [9]. Also, the values for the area under the curve (AUC) in the series on Mus musculus [5] and in the series with Mus musculus [6] were 91.42 ng·h/mL and 625.04 ng·h/mL, respectively. The same compound had a C0 in series [7] of 2740 ng/mL. Moreover, the Cmax in the series on Mus musculus [10] was determined as 76.69 ng/mL.
`CC(C)(C)n1nc(Oc2cccc(Cl)c2)c2c(N)ncnc21`: the volume of distribution (Vdss) in the series with Mus musculus [2] was determined as 1.1 L/kg. In addition, the Tmax in the series with Mus musculus [3] was found to be 15 min. In addition, the Papp in [4] amounted to 30.6 ×10⁻⁶ cm/s; in series [9], 34.8 ×10⁻⁶ cm/s. The compound also came in with an AUC in the series with Mus musculus [5] of 1279.2 ng·h/mL. Also, the C0 in [7] was found to be 5470 ng/mL. For the same compound, the AUClast in the series with Mus musculus [8] was found to be 1172.75 ng·h/mL. The compound further showed a peak concentration (Cmax) in the series with Mus musculus [10] of 1136.36 ng/mL.
Regarding `Nc1ncnc2c1c(Sc1cccc(Cl)c1)nn2CC1CCNCC1`, the Papp is reported as 25.6 ×10⁻⁶ cm/s in series [4] and 2.76 ×10⁻⁶ cm/s in [9]. The compound further displayed a pKa in series [11] of 10.4.
For the compound `CC(C)(C)n1nc(Cc2cccc(Cl)c2)c2c(N)ncnc21`, the AUC(0-t) turned out to be 1080 ng·h/mL in [12] and 919 ng·h/mL in [18]. Also, in [13], the Vd worked out at 1.09 L/kg. Moreover, the Tmax in series [14] turned out to be 15 min. Also, the Papp in series [4] is recorded as 28.7 ×10⁻⁶ cm/s; in series [9] it was 42.9 ×10⁻⁶ cm/s. Also, the F with Mus musculus [15] worked out at 26%. Also, the AUC(0-inf) in series [16] was determined as 931 ng·h/mL; in [17], 1080 ng·h/mL. Further, the C0 in series [7] was 6890 ng/mL. The Cmax in series [19] came out at 585 ng/mL.
Take `Nc1ncnc2c1c(Oc1cccc(Cl)c1)nn2CC1CCNCC1(F)F` (configuration not stated): the figures for the AUClast in the series with Mus musculus [1] and with Mus musculus [8] were 975.9 ng·h/mL and 3058.44 ng·h/mL, respectively. Besides, the Vdss in the series with Mus musculus [2] is 3.68 L/kg. Also, the Kp at 24 h in series [20] came out at 1.3; in series [21] it was 5.6. Besides, the time of peak concentration (Tmax) in the series on Mus musculus [3] is 15 min. Besides, the Papp is 21.2 ×10⁻⁶ cm/s in series [4] and 22.8 ×10⁻⁶ cm/s in [9]. Also, the area under the curve (AUC) in the series with Mus musculus [5] worked out at 3547.95 ng·h/mL. Further, the pKa in [11] was determined as 7.1. Besides, the C0 in [7] was 1210 ng/mL. Besides, the Cmax with Mus musculus [10] worked out at 1048.8 ng/mL.
Turning to `Nc1ncnc2c1c(Oc1cccc(Cl)c1)nn2CC1CCNCC1`, the figures for the AUClast with Mus musculus [1] and in the series on Mus musculus [8] were 449.57 ng·h/mL and 757.85 ng·h/mL, respectively. Also, the volume of distribution (Vdss) with Mus musculus [2] worked out at 19.59 L/kg. In addition, the Tmax in the series with Mus musculus [3] was found to be 120 min. Further, the values for the Papp in series [4] and in series [9] were 9.58 ×10⁻⁶ cm/s and 1.07 ×10⁻⁶ cm/s, respectively. For the same compound, in the series with Mus musculus [5], the AUC was found to be 891.24 ng·h/mL. In addition, in series [11], the pKa was 10.4. Further, the C0 in series [7] turned out to be 536 ng/mL. Also, the Cmax with Mus musculus [10] was found to be 182.56 ng/mL.
Take `Nc1ncnc2c1c(Sc1cccc(Cl)c1)nn2CC1CCNCC1(F)F` (configuration not stated): the Papp turned out to be 25.3 ×10⁻⁶ cm/s in [4] and 27.1 ×10⁻⁶ cm/s in [9]. In addition, the pKa in series [11] turned out to be 7.1.
